Test results from ChEMBL document CHEMBL1201862, “PubChem BioAssay data set” (2004).
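Briefly, cells in 96-well plates were exposed to five compound concentrations for 48 h, and endpoints were estimated by linear interpolation. Here, GI50 denotes the concentration required for 50% inhibition of growth.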 Calls of active or inactive are those of the source. No stated cut-off is given here; in the data, active = GI50 up to about 1.1 µM and inactive = higher.

Key:
Assay in all cases: growth of human tumour cells (NCI), 48 h
NCI-H226 = test system: NCI-H226
DLD-1 = test system: DLD-1
CAKI-1 = test system: CAKI-1
HL-60 = test system: HL-60
SNB-75 = test system: SNB-75
NCI-H23 = test system: NCI-H23
RPMI-8226 = test system: RPMI-8226
OVCAR-5 = test system: OVCAR-5
A549 = test system: A549
HOP-92 = test system: HOP-92
SR = test system: SR
HT-29 = test system: HT-29
IGROV-1 = test system: IGROV-1
DMS-273 = test system: DMS-273
SK-MEL-28 = test system: SK-MEL-28
SF-539 = test system: SF-539
SF-295 = test system: SF-295
SN12C = test system: SN12C
M19-MEL = test system: M19-MEL
ACHN = test system: ACHN
786-0 = test system: 786-0
DMS-114 = test system: DMS-114
UACC-257 = test system: UACC-257
HCC 2998 = test system: HCC 2998
UO-31 = test system: UO-31
M14 = test system: M14
Malme-3M = test system: Malme-3M
COLO 205 = test system: COLO 205
NCI-H522 = test system: NCI-H522
A498 = test system: A498
UACC-62 = test system: UACC-62
HCT-116 = test system: HCT-116
LXFL 529 = test system: LXFL 529
U-251 = test system: U-251
SF-268 = test system: SF-268
SK-MEL-2 = test system: SK-MEL-2
NCI-H460 = test system: NCI-H460
LOX IMVI = test system: LOX IMVI
EKVX = test system: EKVX
SK-MEL-5 = test system: SK-MEL-5
CCRF-CEM = test system: CCRF-CEM
SNB-78 = test system: SNB-78
KM-20L2 = test system: KM-20L2
SK-OV-3 = test system: SK-OV-3
HCT-15 = test system: HCT-15
K562 = test system: K562
KM12 = test system: KM12
HOP-18 = test system: HOP-18
TK-10 = test system: TK-10
OVCAR-8 = test system: OVCAR-8
MOLT-4 = test system: MOLT-4
SNB-19 = test system: SNB-19
OVCAR-4 = test system: OVCAR-4
SW-620 = test system: SW-620
OVCAR-3 = test system: OVCAR-3
MDA-MB-231 = test system: MDA-MB-231
MCF7 = test system: MCF7
BT-549 = test system: BT-549
RXF 393 = test system: RXF 393
MDA-MB-435 = test system: MDA-MB-435
PC-3 = test system: PC-3
T47D = test system: T47D
DU-145 = test system: DU-145
MDA-N = test system: MDA-N
Hs-578T = test system: Hs-578T
NCI/ADR-RES = test system: NCI/ADR-RES
HOP-62 = test system: HOP-62

For CCC1NCC(=O)c2c1[nH]c1ccccc21 (centres undefined), the GI50 (NCI-H226) was > 100 µM (inactive), the GI50 (DLD-1) was > 100 µM (inactive) and the GI50 (CAKI-1) was > 100 µM (inactive). The GI50 (HL-60) was > 100 µM (inactive), the GI50 (SNB-75) was > 100 µM (inactive) and the GI50 (NCI-H23) was > 100 µM (inactive). The GI50 (RPMI-8226) was > 100 µM (inactive), the GI50 (OVCAR-5) was > 100 µM (inactive) and the GI50 (A549) was > 100 µM (inactive). The GI50 (HOP-92) was > 100 µM (inactive), the GI50 (SR) was > 100 µM (inactive) and the GI50 (HT-29) was > 100 µM (inactive). For the same compound, the GI50 (IGROV-1) was > 100 µM (inactive), the GI50 (DMS-273) was > 100 µM (inactive) and the GI50 (SK-MEL-28) was > 100 µM (inactive). For the same compound, the GI50 (SF-539) was > 100 µM (inactive), the GI50 (SF-295) was > 100 µM (inactive) and the GI50 (SN12C) was > 100 µM (inactive). The GI50 (M19-MEL) was > 100 µM (inactive), the GI50 (ACHN) was > 100 µM (inactive) and the GI50 (786-0) was > 100 µM (inactive). For the same compound, the GI50 (DMS-114) was > 100 µM (inactive), the GI50 (UACC-257) was > 100 µM (inactive) and the GI50 (HCC 2998) was > 100 µM (inactive). For the same compound, the GI50 (UO-31) was > 100 µM (inactive), the GI50 (M14) was > 100 µM (inactive) and the GI50 (Malme-3M) was > 100 µM (inactive). For the same compound, the GI50 (COLO 205) was > 100 µM (inactive), the GI50 (NCI-H522) was 91.6 µM (inactive) and the GI50 (A498) was > 100 µM (inactive). For the same compound, the GI50 (UACC-62) was > 100 µM (inactive), the GI50 (HCT-116) was > 100 µM (inactive) and the GI50 (LXFL 529) was > 100 µM (inactive). The GI50 (U-251) was > 100 µM (inactive), the GI50 (SF-268) was > 100 µM (inactive) and the GI50 (SK-MEL-2) was > 100 µM (inactive). The GI50 (NCI-H460) was > 100 µM (inactive), the GI50 (LOX IMVI) was > 100 µM (inactive) and the GI50 (EKVX) was > 100 µM (inactive). The GI50 (SK-MEL-5) was > 100 µM (inactive), the GI50 (CCRF-CEM) was > 100 µM (inactive) and the GI50 (SNB-78) was > 100 µM (inactive). For the same compound, the GI50 (KM-20L2) was > 100 µM (inactive), the GI50 (SK-OV-3) was > 100 µM (inactive) and the GI50 (HCT-15) was greater than 100 µM. The GI50 (K562) was > 100 µM (inactive), the GI50 (KM12) was > 100 µM (inactive) and the GI50 (HOP-18) was > 100 µM (inactive). For the same compound, the GI50 (TK-10) was > 100 µM (inactive), the GI50 (OVCAR-8) was > 100 µM (inactive) and the GI50 (MOLT-4) was > 100 µM (inactive). The GI50 (SNB-19) was > 100 µM (inactive), the GI50 (OVCAR-4) was > 100 µM (inactive) and the GI50 (SW-620) was > 100 µM (inactive). The GI50 (OVCAR-3) was > 100 µM (inactive).
With CC(C)C(/C=C/c1ccc(Cl)cc1)=N\NC(=O)N/N=C(/C=C/c1ccc(Cl)cc1)C(C)C the GI50 (NCI-H226) was 30.8 µM (inactive), the GI50 (MDA-MB-231) was 22.3 µM (inactive) and the GI50 (MCF7) was > 100 µM (inactive). The GI50 (CAKI-1) was 18.5 µM (inactive), the GI50 (HL-60) was > 100 µM (inactive) and the GI50 (SNB-75) was 21.7 µM (inactive). For the same compound, the GI50 (NCI-H23) was 21.9 µM (inactive), the GI50 (RPMI-8226) was > 100 µM (inactive) and the GI50 (OVCAR-5) was > 100 µM (inactive). For the same compound, the GI50 (A549) was 19 µM (inactive), the GI50 (HOP-92) was 21.7 µM (inactive) and the GI50 (SR) was 30.8 µM (inactive). For the same compound, the GI50 (BT-549) was 34.4 µM (inactive), the GI50 (HT-29) was 42.3 µM (inactive) and the GI50 (IGROV-1) was 28.8 µM (inactive). For the same compound, the GI50 (SK-MEL-28) was 50.9 µM (inactive), the GI50 (SF-539) was 16.7 µM (inactive) and the GI50 (SF-295) was 22.9 µM (inactive). For the same compound, the GI50 (SN12C) was 18.4 µM (inactive), the GI50 (ACHN) was 29.2 µM (inactive) and the GI50 (786-0) was 17.6 µM (inactive). The GI50 (RXF 393) was 20.7 µM (inactive), the GI50 (UACC-257) was 57.5 µM (inactive) and the GI50 (HCC 2998) was 83.4 µM (inactive). The GI50 (MDA-MB-435) was 30.1 µM (inactive), the GI50 (UO-31) was 40.9 µM (inactive) and the GI50 (M14) was 24.2 µM (inactive). The GI50 (Malme-3M) was 58.5 µM (inactive), the GI50 (COLO 205) was 45.3 µM (inactive) and the GI50 (PC-3) was > 100 µM (inactive). For the same compound, the GI50 (NCI-H522) was > 10 µM (inactive), the GI50 (A498) was 18.1 µM (inactive) and the GI50 (UACC-62) was 35.5 µM (inactive). For the same compound, the GI50 (HCT-116) was 20.2 µM (inactive), the GI50 (U-251) was 16.9 µM (inactive) and the GI50 (SF-268) was 20 µM (inactive). The GI50 (T47D) was 40.8 µM (inactive), the GI50 (SK-MEL-2) was 26.4 µM (inactive) and the GI50 (NCI-H460) was 23 µM (inactive). For the same compound, the GI50 (DU-145) was > 100 µM (inactive), the GI50 (LOX IMVI) was > 10 µM (inactive) and the GI50 (EKVX) was 21.4 µM (inactive). The GI50 (SK-MEL-5) was 64.6 µM (inactive), the GI50 (CCRF-CEM) was 46.5 µM (inactive) and the GI50 (SK-OV-3) was 32.4 µM (inactive). For the same compound, the GI50 (HCT-15) was 71.4 µM, the GI50 (MDA-N) was 36.6 µM (inactive) and the GI50 (Hs-578T) was 20.1 µM (inactive). The GI50 (K562) was 47.8 µM (inactive), the GI50 (KM12) was > 100 µM (inactive) and the GI50 (TK-10) was 25.3 µM (inactive). For the same compound, the GI50 (OVCAR-8) was 19.4 µM (inactive), the GI50 (MOLT-4) was 48.8 µM (inactive) and the GI50 (SNB-19) was 19.8 µM (inactive). For the same compound, the GI50 (OVCAR-4) was 19.6 µM (inactive), the GI50 (NCI/ADR-RES) was 26.7 µM (inactive) and the GI50 (HOP-62) was 27.9 µM (inactive). The GI50 (SW-620) was 82 µM (inactive) and the GI50 (OVCAR-3) was 19.6 µM (inactive).
